Reference: patent US5216124A, “Substituted cyclic tetrapeptides” (G. D. Searle & Co., priority 1991, dated 1993)
Structures can show the parent of a compound that is named as a salt. Positions of bridges follow the written chain, without caps; N, C: chain ends. Non-standard residues stand in square brackets, D forms with d. Residues, ends and D or L forms follow the SMILES beside them. Phe(4-F) = N[C@@H](Cc1ccc(F)cc1)C(=O)O; Dmt = Cc1cc(O)cc(C)c1C[C@H](N)C(=O)O; NMeCha = CN[C@@H](CC1CCCCC1)C(=O)O; NMeF = CN[C@@H](Cc1ccccc1)C(=O)O; 2Thi = N[C@@H](Cc1cccs1)C(=O)O; Cha = N[C@@H](CC1CCCCC1)C(=O)O; dPen = CC(C)(S)[C@@H](N)C(=O)O

How the values were obtained:
δ opioid receptors = δ opioid receptors (Rattus norvegicus, UniProt P33533); assay: Opiate Binding Assay, displacement of 3[H]-DSLET; details: ratio of mean IC50 μ to δ, above 1.0 = more specific for δ
Sequence of δ opioid receptors (P33533 whole entry): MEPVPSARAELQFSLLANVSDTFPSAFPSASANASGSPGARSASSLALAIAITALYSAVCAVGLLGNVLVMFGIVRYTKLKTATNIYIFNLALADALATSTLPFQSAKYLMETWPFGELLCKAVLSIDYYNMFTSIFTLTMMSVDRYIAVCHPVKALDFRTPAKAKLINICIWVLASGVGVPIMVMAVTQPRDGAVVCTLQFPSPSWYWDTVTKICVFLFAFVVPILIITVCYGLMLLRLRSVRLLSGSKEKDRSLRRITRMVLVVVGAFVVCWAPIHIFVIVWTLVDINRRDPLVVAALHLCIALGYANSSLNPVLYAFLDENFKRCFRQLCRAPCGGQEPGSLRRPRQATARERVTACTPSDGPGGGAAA

CD Charles River mice = assay: Writhing Assay (PBQ-induced writhing); assay type: in vivo, mouse; details: for number of mice out of ten in which peptide was active, Intragastric: 10 mg/kg i.g., PBQ i.p. 15 min after dosing; for number of mice out of ten in which peptide was active, Subcutaneous: 10 mg/kg s.c., PBQ i.p. 25 min after dosing
Text: The "Writhing Assay" is one of the most widely-used experimental procedures for measuring the analgesic activity of different narcotic and nonnarcotic analgesic agents, and involves the continuous, chemically-induced pain of visceral origin to an animal, such as a mouse or rat. [Gyires et al., Arch. int. Pharmacodyn, 267, 131-140 (1984); C. Vander Wende et al., Fed. Proc., 15, 494 (1956); Koster et al., Fed. Proc., 18, 412 (1959); and Witken et al., J. Pharmacol. Exp. Ther., 133, 400-408 (1961). ] Chemicals which may be used to induce this pain include phenylbenzoquinone (PBQ) and acetic acid. As a result of the chemical irritation to the animal, a characteristic stretching and writhing of the animal (dorsiflexion of the animal's back, extension of its hindlimbs an the strong contraction of its abdominal musculature) will generally occur. […] Drugs which reduce the number of writhes of the animal appear to restore the normal nociceptive threshold of the animal.
This assay was conducted generally in the manner described by R. I. Taber, "Predictive Value of Analgesic Assays in Mice and Rats,"Advances in Biochemical Psychopharmacology, 8, 191 (1974). The Methyl Ester Tetrapeptide and Test Tetrapeptides Nos. 1, 3, 4, 5, 6, 7, 8 and 9 were tested in this assay.
Two hundred CD Charles River mice, weighing 20 to 30 grams were used in this assay.
Twenty-five minutes after subcutaneous administration, and fifteen minutes after intragastric administration, to the mice of 10 mg per kilogram of body weight of either a Test Tetrapeptide or the Methyl Ester Tetrapeptide, […] of body weight of a 0.025% w/v solution of PBQ was injected intraperitoneally into each mouse. Some mice were given saline in place of a Test Tetrapeptide or the Methyl Ester Tetrapeptide, and were used as a control group.
Five minutes later, each mouse was individually placed into a glass beaker for observation, and the number of writhes occurring during the following ten-minute period was counted.
A tetrapeptide compound was considered to be "active" (to have produced analgesia in a mouse) if, in accordance with the conditions set forth above, and under the test criteria employed for this assay, after the administration of 10 mg per kilogram of body weight of the tetrapeptide to the mouse, the number of writhes elicited by a mouse injected with PBQ was equal to, or less than, one-half the median number of writhes recorded for the saline-treated control group of mice that day, as described by R. I. Taber, supra.
The standard initial screening dose of a compound employed in this assay was 10 mg per kilogram (mpk) of body weight for both routes of administration. If this initial screening dose of the tetrapeptide produced analgesia in seven of ten mice, then the effect of additional doses of the tetrapeptide on the writhing response was evaluated, and then the ED50 value (that dose of a Test Tetrapeptide or the Methyl Ester Tetrapeptide which produced analgesia in 50% of the mice to which the tetrapeptide was administered) was generally calculated. A maximum likelihood function was used to determine the ED50 value. (The slopes of the dose-response curves for all tetrapeptides analyzed were compared as described by Tallarida and Murray, Manual of Pharmacologic Calculations, Page 11 (Springer Verlag, N.Y., 1981)).

Compound | Mean IC50 Value μ/δ Ratio (δ opioid receptors; monohydrochloride) | number of mice out of ten in which peptide was active, Subcutaneous (CD Charles River mice) | Mean IC50 Value μ/δ Ratio (δ opioid receptors) | number of mice out of ten in which peptide was active, Intragastric (CD Charles River mice) | further results
COC(=O)[C@@H]1NC(=O)[C@H](Cc2ccccc2)NC(=O)C(NC(=O)[C@@H](N)Cc2c(C)cc(O)cc2C)CCSSC1(C)C (single isomer, unassigned) [Example 73, 2,6-dimethyl-L-tyrosylhomocysteinyl-L-phenylalanyl-3-mercapto-D-valine, cyclic (2→4)-disulfide, methyl ester, monohydrochloride] | 0.10 | 6/10 |  |  | number of mice out of ten in which peptide was active, Intragastric (CD Charles River mice; listed as Test Tetrapeptide No. 5, monohydrochloride, 10 mg/kg): 5/10
COC(=O)[C@@H]1NC(=O)[C@H](Cc2ccccc2)NC(=O)C(NC(=O)[C@@H](N)Cc2c(C)cc(O)cc2C)CCSSC1(C)C (single isomer, unassigned) [Example 72, 2,6-dimethyl-L-tyrosylhomocysteinyl-L-phenylalanyl-3-mercapto-D-valine, cyclic (2→4)-disulfide, methyl ester, monohydrochloride] | 0.4 | 6/10 |  |  | number of mice out of ten in which peptide was active, Intragastric (CD Charles River mice; listed as Test Tetrapeptide No. 4, monohydrochloride, 10 mg/kg): 1/10
COC(=O)[C@@H]1NC(=O)[C@H](CC2CCCCC2)N(C)C(=O)[C@H](NC(=O)[C@@H](N)Cc2c(C)cc(O)cc2C)CSSC1(C)C [Example 53, 2,6-dimethyl-L-tyrosyl-D-cysteinyl-3-cyclohexyl-N-methyl-L-alanyl-3-mercapto-D-valine, cyclic (2→4)-disulfide, methyl ester, monohydrochloride] (H-[Dmt][dC][NMeCha][dPen]-OMe; disulfide 2-4) |  | 3/10 | 12 | 3/10 | 
COC(=O)[C@@H]1NC(=O)[C@H](Cc2ccccc2)N(C)C(=O)[C@H](NC(=O)[C@@H](N)Cc2c(C)cc(O)cc2C)CSSC1(C)C [Example 39, 2,6-dimethyl-L-tyrosyl-D-cysteinyl-N-methyl-L-phenylalanyl-3-mercapto-D-valine, cyclic (2→4)-disulfide, methyl ester, monohydrochloride] (H-[Dmt][dC][NMeF][dPen]-OMe; disulfide 2-4) |  | 4/10 | 6.0 | 5/10 | 
Cc1ccc(CC(N)C(=O)N[C@@H]2CSSC(C)(C)[C@H](C(=O)O)NC(=O)[C@H](Cc3ccccc3)NC2=O)c(C)c1O (single isomer, unassigned) [Example 81 (Diastereomer B), 3-hydroxy-2,4-dimethylphenylalanyl-D-cysteinyl-L-phenylalanyl-3-mercapto-D-valine, cyclic (2→4)-disulfide, monohydrochloride] | 19 |  |  |  | 
COC(=O)[C@@H]1NC(=O)[C@H](CC2CCCCC2)NC(=O)[C@H](NC(=O)[C@@H](N)Cc2c(C)cc(O)cc2C)CSSC1(C)C [Example 46, 2,6-dimethyl-L-tyrosyl-D-cysteinyl-3-cyclohexyl-L-alanyl-3-mercapto-D-valine, cyclic (2→4)-disulfide, methyl ester, monohydrochloride] (H-[Dmt][dC][Cha][dPen]-OMe; disulfide 2-4) |  | 5/10 | 0.6 | 4/10 | 
Cc1cc(O)c(C)c(C)c1CC(N)C(=O)N[C@@H]1CSSC(C)(C)[C@H](C(=O)O)NC(=O)[C@H](Cc2ccccc2)NC1=O (single isomer, unassigned) [Example 82 (Diastereomer B), 2,3,6-trimethyltyrosyl-D-cysteinyl-L-phenylalanyl-3-mercapto-D-valine, cyclic (2→4)-disulfide, monohydrochloride] |  |  | 81 |  | 
Cc1ccc(CC(N)C(=O)N[C@@H]2CSSC(C)(C)[C@H](C(=O)O)NC(=O)[C@H](Cc3ccccc3)NC2=O)c(C)c1O (single isomer, unassigned) [Example 81 (Diastereomer A), 3-hydroxy-2,4-dimethylphenylalanyl-D-cysteinyl-L-phenylalanyl-3-mercapto-D-valine, cyclic (2→4)-disulfide, monohydrochloride] | 0.1 |  |  |  | 
COC(=O)[C@@H]1NC(=O)[C@H](Cc2ccc(F)cc2)NC(=O)[C@H](NC(=O)[C@@H](N)Cc2c(C)cc(O)cc2C)CSSC1(C)C [Example 67, 2,6-dimethyl-L-tyrosyl-D-cysteinyl-4-fluoro-L-phenylalanyl-3-mercapto-D-valine, cyclic (2→4)-disulfide, methyl ester, monohydrochloride] (H-[Dmt][dC][Phe(4-F)][dPen]-OMe; disulfide 2-4) |  | 2/10 | 2.4 | 1/10 | 
Cc1cc(O)ccc1CC(N)C(=O)N[C@@H]1CSSC(C)(C)[C@H](C(=O)O)NC(=O)[C@H](Cc2ccccc2)NC1=O (single isomer, unassigned) [Example 5 (Diastereomer B)] |  |  | 15 |  | 
Cc1cc(O)ccc1CC(N)C(=O)N[C@@H]1CSSC(C)(C)[C@H](C(=O)O)NC(=O)[C@H](Cc2ccccc2)NC1=O (single isomer, unassigned) [Example 5 (Diastereomer A)] |  |  | 48 |  | 
COC(=O)[C@@H]1NC(=O)[C@H](Cc2cccs2)NC(=O)[C@H](NC(=O)[C@@H](N)Cc2c(C)cc(O)cc2C)CSSC1(C)C [Example 60, 2,6-dimethyl-L-tyrosyl-D-cysteinyl-3-(2-thienyl)-L-alanyl-3-mercapto-D-valine, cyclic (2→4)-disulfide, methyl ester, monohydrochloride] (H-[Dmt][dC][2Thi][dPen]-OMe; disulfide 2-4) |  |  | 1.4 |  | 
